What follows are compounds tested on human PSMA+ LNCaP cells (assay: Internalization of radiolabelled compounds in LNCaP cells). Conditions: 0.75 h, 0.03 µM.
Type: cell-based
Procedure: Gallium labeling was carried out using 90 μL HEPES in water (580 mg/mL; ultrapure-grade, Merck, Darmstadt, Germany) mixed with 40 μL of [^68Ga]GaCl3. The pH of the mixture was adjusted to 3.8 to 4.1 with NaOH (30%; ultrapure-grade, Merck, Darmstadt, Germany). Subsequently 1.0 nmol of a synthesized compound of Example 3 to 10 was added and incubated at 98 ° C. for 10 to 15 minutes. For the competitive cell assay, the precursor amount was diminished to 0.5 nmol.
Lutetium labelling was carried out using 115 μL of sodium acetate buffer (400 mM, pH mixed with 10 to 20 MBq [177Lu]LuCl3. Subsequently, 1.0 nmol of a synthesized compound of Example 3 to 10 was added and incubated at 98 ° C. for 20 to 25 minutes.
Cell binding studies were performed using human PSMA+ LNCaP cells (ATCC CRL-1740) cultured in RPMI 1640 medium supplemented with 10% fetal bovine serum (Sera plus, PAN Biotech) and 2 mmol/l stable glutamine (PAN Biotech). Cells were grown at 37° C. in an incubator with humidified air and 5% CO2. Trypsin/EDTA 0.5%/0.02% in PBS (PAN Biotech) was used to harvest cells.
1×10^5 LNCaP cells were seeded in poly-L-lysine coated 24-well-plates for 24 h at 37° C. humidified air with 5% CO2. After removing the medium, cells were incubated with radiolabelled compounds of Example 11 (30 nM) for 45 minutes at 37° C. and at 4° C. respectively. For determination of specific cell uptake, cells were blocked with PMPA (Tocris) at a concentration of 500 μM. The cells were washed three times with 1 ml ice-cold PBS, twice with 500 μl glycine-HCl (50mM; pH 2.8) for 5 min at rt to remove the surface-bound radioactivity and with 1 ml ice-cold PBS. Subsequent the cells were lysed with 0.5 ml 0.3M NaOH. The internalized and the surface-bound fractions were measured in a gammacounter.
With `O=C(O)CC[C@H](NC(=O)N[C@@H](CCCCNC(=O)[C@H](Cc1ccc2ccccc2c1)NC(=O)[C@H]1CC[C@H](CNC(=O)CN2CCN(CC(=O)O)CCN(CC(=O)O)CCN(CC(=O)O)CC2)CC1)C(=O)O)C(=O)O` [PSMA-617, (3S,10S,14S)-3-[(naphthalen-2-yl)methyl]-1,4,12-trioxo-1-[(1R,4S)-4-[[2-[4,7,10-tris(carboxymethyl)-1,4,7,10-etraazacyclododecan-1-yl]acetamido]methyl]cyclo-hexyl]-2,5,11 ,13-tetraazahexadecane-10,14,16-tricarboxylic acid, reference compound] the “internalisation rate (%)” value was 31.1%.

Same assay, conditions: radiolabelled compounds (30 nM), 45 minutes, 37° C. and 4° C., LNCaP cells, specific uptake by blocking with PMPA 500 μM
For `Cc1nc(CNC(=O)CN2CCN(CC(=O)O)CCN(CC(=O)O)CCN(CC(=O)O)CC2)sc1C(=O)N[C@@H](Cc1ccc2ccccc2c1)C(=O)NCCCC[C@H](NC(=O)N[C@@H](CCC(=O)O)C(=O)O)C(=O)O` [Example ABX271], the “internalisation rate (%)” value was 37.8%. `O=C(O)CC[C@H](NC(=O)N[C@@H](CCCCNC(=O)[C@H](Cc1ccc2ccccc2c1)NC(=O)c1ccc(CNC(=O)CN2CCN(CC(=O)O)CCN(CC(=O)O)CCN(CC(=O)O)CC2)s1)C(=O)O)C(=O)O` [Example ABX272] was tested, and the “internalisation rate (%)” value was 41.4%. With `O=C(O)CC[C@H](NC(=O)N[C@@H](CCCCNC(=O)[C@H](Cc1ccc2ccccc2c1)NC(=O)c1cc(CNC(=O)CN2CCN(CC(=O)O)CCN(CC(=O)O)CCN(CC(=O)O)CC2)on1)C(=O)O)C(=O)O` [Example ABX288] the “internalisation rate (%)” value was 33.2%. In the case of `O=C(O)CC[C@H](NC(=O)N[C@@H](CCCCNC(=O)[C@H](Cc1ccc2ccccc2c1)NC(=O)c1ccc(CNC(=O)CN2CCN(CC(=O)O)CCN(CC(=O)O)CCN(CC(=O)O)CC2)nc1)C(=O)O)C(=O)O` [Example ABX289], the “internalisation rate (%)” value is reported as 55.7%. `O=C(O)CC[C@H](NC(=O)N[C@@H](CCCCNC(=O)[C@H](Cc1csc2ccccc12)NC(=O)c1cc(CNC(=O)CN2CCN(CC(=O)O)CCN(CC(=O)O)CCN(CC(=O)O)CC2)on1)C(=O)O)C(=O)O` [Example ABX338] was tested, and the “internalisation rate (%)” value was 40.8%. In the case of `O=C(O)CC[C@H](NC(=O)N[C@@H](CCCCNC(=O)[C@H](Cc1ccc2ccccc2c1)NC(=O)c1cc(CNC(=O)[C@H](CCCCNc2ccc([N+](=O)[O-])cc2[N+](=O)[O-])NC(=O)CN2CCN(CC(=O)O)CCN(CC(=O)O)CCN(CC(=O)O)CC2)on1)C(=O)O)C(=O)O` [Example ABX339], the “internalisation rate (%)” value is reported as 60.6%. In the case of `O=C(O)CC[C@H](NC(=O)N[C@@H](CCCCNC(=O)[C@H](Cc1csc2ccccc12)NC(=O)c1cc(CNC(=O)[C@H](CCCCNc2ccc([N+](=O)[O-])cc2[N+](=O)[O-])NC(=O)CN2CCN(CC(=O)O)CCN(CC(=O)O)CCN(CC(=O)O)CC2)on1)C(=O)O)C(=O)O` [Example ABX341], the “internalisation rate (%)” value is reported as 61.3%. `O=C(O)CC[C@H](NC(=O)N[C@@H](CCCCNC(=O)[C@H](Cc1csc2ccccc12)NC(=O)c1cc(CNC(=O)[C@H](CCCCNC(=O)c2ccc(I)cc2)NC(=O)CN2CCN(CC(=O)O)CCN(CC(=O)O)CCN(CC(=O)O)CC2)on1)C(=O)O)C(=O)O` [Example ABX346] was tested, and the “internalisation rate (%)” value was 46.7%.

— US20230406847A1, “LIGANDS OF PROSTATE SPECIFIC MEMBRANE ANTIGEN (PSMA) CONTAINING HETEROAROMATIC LINKER BUILDING BLOCKS” (ABX ADVANCED B[…] GMBH, priority 2020, published 2023)
